For data set [1], the system named is serum cholesterol and serum triglyceride levels. Nature of the data set: Testing of normal mice: hypolipidemic activity in CF1 mice. The following applies: for response vs control in vivo at 20 mg/kg/day: Mus musculus. The class given is in vivo, CF1 male mice. Here is the method: The following compounds were tested for their hypolpidemic activity in CF1 mice.
Compounds A-V as defined above, were suspended in an aqueous 1 percent carboxymethylcellulose (CMC) solution and homogenized. Each of the so prepared compounds were administered to a group of six CF1 male mice, each weighing approximately 25 grams, intraperitioneally for 16 days. Each of these compounds were provided in a dosage of 20 mg/kg/d ip. On Days 9 and 16 blood was obtained by tail vein bleeding. The blood serum so obtained was separated by centrifugation for three minutes. Serum cholesterol levels were determined by a modification of the Liebermann-Burchard reaction (Ness, Clin. Chim. Acta., Vol. 10, 229 [1964]). Serum triglyceride levels were determined on Day 16 by use of the Fisher, Hycel Triglyceride Test Kit.
In addition to the above-described treated mice, an untreated control group of six mice were similarly tested on Days 9 and 16 to determine their serum cholesterol and trigylceride blood levels. Based on the results obtained for the untreated control group, the percent control, based on serum cholesterol and serum triglyceride levels of the treated mice compared to the untreated mice, was obtained. Table 1 reports this percent control, including standard deviation, indicating the level of confidence of these numbers.

Data set [2] shares this test system. The data set is described as follows: Testing of hyperlipidemic mice (atherogenic diet). It is filed as in vivo, CF1 male mice. As to conditions: hyperlipidemic CF1 mice, 20 mg/kg/d intraperitoneally, Day 12. As to the method:
A group of six CF^1 male mice (about 25 g) were placed on a commercial diet (U.S. Biochemical Corporation Basal Atherogenic Test Diet) which produced a "hyperlipidemic" state. That is, the average serum cholesterol level in the group of treated mice was raised from 122 to 375 mg percent and triglyceride levels were raised from 137 to 367 mg/dL.

Another data set in a line: in vivo. The following applies: mouse, ip.
The next data set has as its system plasma lipids. The following applies: rats; cited from earlier work.
In a further data set the test system is serum lipoprotein. The data set is described as follows: Cholesterol content of serum lipoprotein of treated Sprague-Dawley rats. As to conditions: orally 14 days at 20 mg/kg/day. It is filed as in vivo. From the text:
A test solution of Compounds A, F, J, M, N and O were suspended in an aqueous solution of 1% CMC, homogenized and administered orally to six Sprague-Dawley male rats, which each weighted approximately 350 grams. Administration of the compounds was by an intubation needle. The rats were each fed with 20 milligrams of Compounds A, F, J, M, N and O per kilogram of body weight per day for 14 days. Similarly, six Sprague-Dawley male rats of approximately the same weight (that used for testing F weighed approximately 160 grams) were fed similar volumes of the same aqueous 1% CMC solution without the active agents, also orally, administered by intubation needle. In addition, as a control, a similar group of six male Sprague-Dawley rats were untreated.
The cholesterol content of serum lipoprotein
of Sprague-Dawley Rats treated
orally for 14 days at 20 mg/kg/day

Where [3] appears, read: 216 h, normal CF1 mice, 20 mg/kg/d ip, Day 9, read-out: Serum Cholesterol, Day 9.
Setting [4] is: 384 h, normal CF1 mice, 20 mg/kg/d ip, Day 16, read-out: Serum Cholesterol, Day 16.
[5] abbreviates: 384 h, normal CF1 mice, 20 mg/kg/d ip, Day 16, read-out: Serum Triglyceride, Day 16.
Setting [6] is: normal CF1 mice, 20 mg/kg/d ip, Day 16.

Like-named read-outs stand apart in the source and are kept apart here.

Take `CC(=O)n1c(=O)n(-c2ccc(Cl)cc2)c(=O)n1C(C)=O` [U, 4-(4-chlorophenyl)-1,2-dimethylcarbonyl-1,2,4-triazolidine-3,5-dione]: the response vs control in vivo at 20 mg/kg/day in data set [1] (setting [3]) came out at 72%; in data set [1] (setting [4]), 51%; in data set [1] (setting [5]), 51%.

For the molecule `CCOC(=O)c1nc(=O)n(-c2ccc(Cl)cc2)c(=O)[nH]1` [O, 3-(4-chlorophenyl)-6-ethoxycarbonyl-1,3,5-triazine-2,4(1 --H,3 --H)-dione], the response vs control in vivo at 20 mg/kg/day stood at 63 ± 4% in data set [1] (setting [3]), 57 ± 4% in data set [1] (setting [4]) and 55 ± 6% in data set [1] (setting [5]).

As for `CCOC(=O)C1n2c(=O)n(-c3ccc(Cl)cc3)c(=O)n21` [L, 3-(4-chlorophenyl)-6-ethoxyacarbonyl-1,3,5-triazabicyclo[3.1.0]hexane-2,4-dione], the response vs control in vivo at 20 mg/kg/day in data set [1] (ip, 216 h, read-out: Serum Cholesterol, Day 9) was 74 ± 3%; in data set [1] (ip, 384 h, read-out: Serum Cholesterol, Day 16) it was 56 ± 5%; in data set [1] (ip, 384 h, read-out: Serum Triglyceride, Day 16), 66 ± 7%.

Regarding `O=c1[nH][nH]c(=O)n1-c1ccc([N+](=O)[O-])cc1` [H, 4-(4-nitrophenyl)-1,2,4-triazolidine-3,5-dione], the response vs control in vivo at 20 mg/kg/day was 73 ± 5% in data set [1] (setting [3]), 66 ± 5% in data set [1] (setting [4]) and 47 ± 5% in data set [1] (setting [5]).

For `COc1ccc(-n2c(=O)n(C(C)=O)n(C(C)=O)c2=O)cc1` [P, 4(4-methoxyphenyl)-1,2-dimethylcarbonyl-1,2,4-triazolidine-3,5-dione], the response vs control in vivo at 20 mg/kg/day in data set [1] (setting [3]) worked out at 76%; in data set [1] (setting [4]), 57%; in data set [1] (setting [5]) it was 49%.

Take `CC(=O)n1[nH]c(=O)n(-c2ccccc2)c1=O` [A, 4-phenyl-1-methylcarbonyl-1,2,4-triazolidine-3,5-dione]: the “Serum Cholesterol” value in data set [2] was 41% of Control. The “Serum Triglyceride” value in data set [2] is recorded as 40% of Control. Moreover, the LD50 in “in vivo” was over 500 mg/kg. Also, the values for the response vs control in vivo at 20 mg/kg/day in data set [1] (setting [3]), in data set [1] (setting [4]) and in data set [1] (setting [5]) were 67 ± 5%, 61 ± 6% and 48 ± 6%, respectively.

Consider `O=C(O)c1cc(=O)[nH]c(=O)[nH]1` [Orotic acid], for which the “plasma lipids blood level” value in the data set with plasma lipids is “decrease the plasma lipids blood level in rats”.

Regarding `O=c1[nH][nH]c(=O)n1-c1ccccc1` [E, 4-phenyl-1,2,4-triazolidine-3,5-dione], the response vs control in vivo at 20 mg/kg/day in data set [1] (setting [3]) was 71 ± 5%; in data set [1] (setting [4]), 48 ± 3%; in data set [1] (setting [5]), 68 ± 6%.

On to `O=c1[nH][nH]c(=O)[nH]1` [Parent, 1,2,4-triazolidine-3,5-dione], for which the response vs control in vivo at 20 mg/kg/day worked out at 81% in data set [1] (setting [3]), 79% in data set [1] (setting [4]) and 73% in data set [1] (setting [5]).

As to `COc1ccc(-n2c(=O)[nH][nH]c2=O)cc1` [F, 4-(4-methoxyphenyl)-1,2,4-triazolidine-3,5-dione], the response vs control in vivo at 20 mg/kg/day in data set [1] (setting [3]) is 75 ± 5%; in data set [1] (setting [4]), 56 ± 4%; in data set [1] (setting [5]) it was 58 ± 3%.

`CC(=O)n1c(=O)n(-c2ccccc2)c(=O)n1C(C)=O` [B, 4-phenyl-1,2-dimethylcarbonyl-1,2,4-triazolidine-3,5-dione]: the response vs control in vivo at 20 mg/kg/day in data set [1] (setting [3]) is 70 ± 6%; in data set [1] (setting [4]) it was 64 ± 5%; in data set [1] (setting [5]), 61 ± 5%.

Regarding `CCCCCC(=O)n1[nH]c(=O)n(-c2ccc(Cl)cc2)c1=O` [V, 4-(4-chlorophenyl)1-pentylcarbonyl (2 --H)-1,2,4-triazolidine-3,5 dione], the figures for the response vs control in vivo at 20 mg/kg/day in data set [1] (setting [3]), in data set [1] (setting [4]) and in data set [1] (setting [5]) were 77%, 52% and 42%, respectively.

As to `CCC(=O)n1c(=O)n(-c2ccc([N+](=O)[O-])cc2)c(=O)n1C(=O)CC` [Compound S, 4-(4-nitrophenyl)-1,2 diethylcarbonyl-1,2,4-triazolidine-3,5-dione], the response vs control in vivo at 20 mg/kg/day was found to be 72% in data set [1] (setting [3]), 36% in data set [1] (setting [4]) and 62% in data set [1] (setting [5]).

For the molecule “4-(4- -n-butyl)-1,2 dipentylcarbonyl-1,2,4-triazolidine-3,5-dione”, the “Serum Cholesterol, Day 9” value in data set [1] (normal CF1 mice, 20 mg/kg/d ip, Day 9) was 69 percent control. For the same molecule, in data set [1] (setting [6]), the “Serum Cholesterol, Day 16” value was determined as 49 percent control and the “Serum Triglyceride, Day 16” value is on record as 53 percent control.

As for `CCC(=O)n1c(=O)n(-c2ccc(OC)cc2)c(=O)n1C(=O)CC` [R, 4.(4-methoxyphenyl)-1,2 diethylcarbonyl-1,2,4-triazolidine-3,5-dione], the figures for the response vs control in vivo at 20 mg/kg/day in data set [1] (setting [3]), in data set [1] (setting [4]) and in data set [1] (setting [5]) were 62%, 63% and 62%, respectively.

With `COc1ccc(-n2c(=O)n(C(=O)c3ccccc3)n(C(=O)c3ccccc3)c2=O)cc1` [Q, 4.(4-methoxyphenyl)-1,2-diphenylcarbonyl-1,2,4-triazolidine-3,5-dione], the response vs control in vivo at 20 mg/kg/day in data set [1] (setting [3]) amounted to 67%; in data set [1] (setting [4]), 86%; in data set [1] (setting [5]), 75%.

For `Cn1c(=O)[nH][nH]c1=O` [K, 4-methyl-1,2,4-triazolidine-3,5-dione], the response vs control in vivo at 20 mg/kg/day in data set [1] (setting [3]) amounted to 88 ± 6%; in data set [1] (setting [4]), 67 ± 5%; in data set [1] (setting [5]), 89 ± 5%.

Regarding `O=c1[nH][nH]c(=O)n1-c1ccc(Cl)cc1` [J, 4-(4-chlorophenyl)-1,2,4-triazolidine-3,5-dione], the “Serum Cholesterol” value in data set [2] is listed as 46% of Control. Further, the “Serum Triglyceride” value in data set [2] is recorded as 49% of Control. The molecule also registered an LD50 in the data set “in vivo” of over 500 mg/kg. Also, the response vs control in vivo at 20 mg/kg/day stood at 90 ± 5% in data set [1] (setting [3]), 58 ± 4% in data set [1] (setting [4]) and 43 ± 4% in data set [1] (setting [5]).

Regarding `CCCCn1c(=O)[nH][nH]c1=O` [G, 4-(4-n-butyl)-1,2,4-triazolidine-3,5-dione], the response vs control in vivo at 20 mg/kg/day stood at 71 ± 6% in data set [1] (setting [3]), 69 ± 5% in data set [1] (setting [4]) and 79 ± 8% in data set [1] (setting [5]).

As to `CCOC(=O)c1nc(=O)n(-c2ccccc2)c(=O)[nH]1` [Compound N, 3-phenyl-6-ethoxycarbonyl-1,3,5-triazine-2,4(1 --H,3 --H)-dione], in the data set with serum lipoprotein, the VLDL cholesterol is on record as 50% of Control. In data set [2], the “Serum Cholesterol” value was 50% of Control. In data set [2], the “Serum Triglyceride” value is reported as 46% of Control. Moreover, the response vs control in vivo at 20 mg/kg/day in data set [1] (setting [3]) was 63 ± 6%; in data set [1] (setting [4]), 54 ± 5%; in data set [1] (setting [5]), 51 ± 2%.

For `CC(=O)n1[nH]c(=O)n(-c2ccc(Cl)cc2)c1=O` [Compound D, 4-(4-chlorophenyl)-1-methylcarbonyl-1,2,4-triazolidine-3,5-dione], the response vs control in vivo at 20 mg/kg/day in data set [1] (setting [3]) worked out at 73 ± 4%; in data set [1] (setting [4]), 64 ± 6%; in data set [1] (setting [5]), 55 ± 7%.

Turning to `CCOC(=O)n1[nH]c(=O)n(-c2ccccc2)c1=O` [C, 4-phenyl-1-ethoxycarbonyl-1,2,4-triazolidine-3,5-dione], the response vs control in vivo at 20 mg/kg/day stood at 73 ± 7% in data set [1] (setting [3]), 69 ± 5% in data set [1] (setting [4]) and 62 ± 6% in data set [1] (setting [5]).

(Values after US4866058A, “Method for control of hyperlipidemia” (priority 1988, dated 1989).)
